Data taken from US20250271361A1, “SUPERCONTINUUM INTRINSIC FLUORESCENCE IMAGING” (The Board of Trustees of the University of Illinois, priority 2024, published 2025).

How the values were obtained:
live BHK-21 cells [1] = test: time-lapse kinetic imaging assay (single-cell pharmacokinetic SOMI) of hamster kidney cells after transient exposure; conditions: for cellular uptake by endocytosis via THG-visible nanovesicles: comparative kinetic assays of two mitochondrial uncouplers
Description: (§1) In the above experiments (e.g., in the procedures used to generate the images described above), the following materials and methods were provided or performed. Adherent Syrian golden hamster kidney fibroblast cells BHK-21 (clone 13, ATCC CCL-10) were cultured in phenol red-free Eagle's Minimum Essential Medium (EMEM) supplemented with 10% FBS, 1% penicillin-streptomycin-amphotericin B (PSA), and 2.5 mM L-Glutamine at 37° C. under 5% CO2, and atmospheric O2 conditions. Before imaging, 1 mL of trypsinized cells was resuspended in 1 mL of 1×TrypLE™ Select Enzyme cell dissociation reagent (TFS, Cat #12563029). The cells were plated on poly-D-lysine coated 35-mm diameter glass-bottom imaging dishes and maintained inside a humidified incubator with 5% CO2 and 21% O2 conditions at 37° C. The incubation time varied between 1-6 hours while the culture media might be supplemented with specific drugs or labeling agents at […] concentrations. The cells were imaged within 10 min of being taken out of the incubator.
Large area or 3D SOMI was enabled by a motorized sample stage. Without moving the stage, time-lapse imaging of dynamic phenomenon or frame-averaged imaging of static samples were conducted in a constant field-of-view. Single-cell pharmacokinetics imaging was performed in a time-lapse SOMI of 200-frame period at the center of a 35-mm diameter glass-bottom imaging culture dish with 2 mL culture media of live BHK-21 cells. During the imaging near the 50-frame timepoint, 0.1 mL of preprepared concentrated solution of a drug (BAM15/FCCP) or labeling agent (AP3) was injected in ˜1 s by a mounted pipette into the center of the dish, attaining an ending/equilibrium concentration of […]. The fluorescence from AP3 in a segmented empty space among the cells was used to detect the transient concentration profile of injected drugs and labeling agents during the time-lapse imaging.

live BHK-21 cells [2] = conditions: statement of general knowledge, explained by the kinetic assay; cited from earlier work
[3] = tested on: hamster kidney fibroblast cells BHK-21; test: SCIFI/SOMI endpoint (snapshot) imaging assay of in vitro hamster kidney cells treated with a drug or imaging agent; assay type: cell-based, Syrian golden hamster
Description: Next, the interaction between in vitro hamster kidney cells with a drug or imaging agent were evaluated.
Power-dependent “imaging” experiments were conducted on the prepared solutions and coverslip across the six colors by an excitation that would be standardized for biological imaging. […] For the 6-color SOMI images (1024×1024 pixels) collected from a biological sample, the raw intensity image of each color was converted into a photon-count image (unit: photon/pulse) using the established (calibrated) relation for that color at the same photomultiplier gain. Then, some (2-72) discernable single cells or cell clusters were manually segmented in the 6-color photon-count images. Finally, the SOMI intensity profiles of segmented single cells (or cell clusters) averaged over the corresponding pixels were obtained after a background subtraction. Specifically, the background of the culture medium in the empty space among the segmented cells was subtracted for 2D cell culture samples while the background with blocked illumination was subtracted for all 3D (tissue) samples.
In contrast to reductionism-based imaging, the lack of FLIM capability for general fluorescence imaging presented another challenge that may have contributed to the low popularity of comparative systems biology-based imaging strategies. Due to the high dynamic range of SOMI in gentle biological imaging, comparative photon counting of FLIM with low dynamic range (<0.2 photon/pulse, typically) cannot be used. To recover this capability, time-resolved photon counts were determined using computational photon counting, which provides single-photon accuracy for signals with high dynamic range. The output of three analog output photomultipliers for 4PAF, 3PAF, and 2PAF was optionally amplified with a high-speed transimpedance amplifier (C5594, Hamamatsu), and digitized at 2 GS/s with a high-speed digitizer (ATS9373, AlazarTech). Digitized values were saved, and photon-counting and lifetime information was computed in post-processing using custom MATLAB scripts (Mathworks). FLIM for the 2PAF and 3PAF colors were validated using NADH, FAD, and other standard dyes. To calibrate computational photon counting for 4PAF, Trp solutions from 0 to 50 mM were examined and a single-photon peak threshold was determined based on the peak height histogram to ensure a linear relationship between intensity and concentration over this range. After computational photon counting, mean fluorescence lifetime and phasor components g and s were determined by phasor analysis. For single-cell quantification, all fluorescence decays within a segmented cell were summed together, and one mean fluorescence lifetime was estimated from the total decay, along with one g and one s value.
as §1

[4] = apoptotic hamster kidney cells, endpoint assay

SMILES | cellular uptake by endocytosis via THG-visible nanovesicles (live BHK-21 cells [1]) | toxicity in mitochondrial uncoupling, compared with FCCP (live BHK-21 cells [2]) | cytotoxicity sensed in real-time by 4PIF (live BHK-21 cells [1]; at a high concentration, transient exposure) | rise in FAD* coinciding with sudden decrease in ETC (live BHK-21 cells [1]; both BAM15 concentrations, kinetic assay) [fold] | induced FAD* in cytoplasm, BAM15 compared with FCCP (live BHK-21 cells [1]; comparative kinetic assays) | LFI (lipofuscin fluorescence independence extent) ([3]; in vitro hamster kidney cells, endpoint assay, control 32%) [%] | color through which cells respond (live BHK-21 cells [1]; transient exposure, kinetic assay) [PIF/NADH but not THG] | LFI versus treatment-free control [3, 4] | ORR (optical redox ratio) versus treatment-free control [3, 4] | LFR (LOP-to-FAD ratio) ([3]; in vitro STS-induced apoptosis confirmed by single-cell morphological change) | apoptosis via modified cell morphology ([3]; in vitro hamster kidney cells, endpoint assay, different fields) | 3PIF (NADH) in 6-color profile ([3]; in vitro hamster kidney cells, label-free biomarker of apoptosis)
N#CC(C#N)=NNc1ccc(OC(F)(F)F)cc1 [FCCP] | not |  |  |  |  |  |  |  |  |  |  | 
Fc1ccccc1Nc1nc2nonc2nc1Nc1ccccc1F [BAM15] | might enable cellular uptake | less toxic than FCCP | confirmed | ~10 | surprisingly larger | 44 |  |  |  |  |  | 
CN[C@@H]1C[C@H]2O[C@@](C)([C@@H]1OC)n1c3ccccc3c3c4c(c5c6ccccc6n2c5c31)C(=O)NC4 [STS, staurosporine] |  |  |  |  |  |  | 3 | retained a low LFI | reduced ORR | increase in LFR | induced apoptosis | peaked
